According to patent publication US5310757A, “3,3,5-trimethylcyclohexyl 2-methylpropionate derivatives, their method of preparation and therapeutic compositions in which they are present” (Panmedica, priority 1989, dated 1994):
pIC50: −log10 of the molar value.

Experiments:
[1] = system: hyperlipidaemia caused by TRITON 1339; assay: test for the hyperlipidaemia caused by TRITON 1339; type: in vivo; conditions: rats, Triton test after oral administration for six days, 0.5 millimol per kilogram; for HDL cholesterol: Control 0.7 ± 0.1, Triton 0.8 ± 0.1; for Triglycerides: Control 1 ± 0.3, Triton 10 ± 7; for Total cholesterol: Control 2 ± 0.15, Triton 9 ± 3; for Total lipids: Control 3.5 ± 0.4, Triton 20 ± 10
Procedure: The Table below summarizes the results of the pharmacological studies carried out especially by means of the test for the hyperlipidaemia caused by TRITON 1339. The experimental protocol was that published by J. C. […] et al. (Gaz. Med. France, 3rd inter. coll. 1982, Dijon, 18-22). The tests are performed on groups of 7 rats weighing from 280 to 290 g. The Triton test is carried out after oral administration for six days at a rate of 0.5 millimol per kilogram of body weight. The following lipid parameters are measured: total cholesterol, triglycerides, total lipids and HDL cholesterol.

HMG-CoA red. = HMG-CoA red. activity "ex vivo" in liver microsomes after chronic intraperitoneal administration to rats; parameters: Mevalonate formed: unit not given here; conditions: 50 mg/kg for 6 days; for Mevalonate formed: Control 17; for % inhibition: inhibition of HMG-CoA red. activity, Control 0
Procedure: The inhibitory activity of the products according to the present invention was determined by the method of Kuroda et al. (Biochemica et Biophysica Acta, vol. 486, pp. 70-81 (1977)), which is a modification of the method of Shapiro et al. (Analytical Biochemistry, vol. 31, pp. 383-390 (1969)). […] The doses administered were 50 mg/kg for 6 days; six rats were used in each series; they are sacrificed without anaesthesia and the liver microsomes are isolated for the assay, which is performed according to the above-mentioned protocol.

[2] = target: T1, 3-hydroxy-3-methylglutaryl-CoA reductase (Rattus norvegicus, UniProt P51639); assay: inhibition of 3-hydroxy-3-methylglutaryl-CoA reductase activity (method of Kuroda et al.); type: biochemical; conditions: concentration for 50% inhibition of 3-hydroxy-3-methylglutaryl-CoA reductase activity
T1 construct: from tissue
T1 sequence (P51639 1-887): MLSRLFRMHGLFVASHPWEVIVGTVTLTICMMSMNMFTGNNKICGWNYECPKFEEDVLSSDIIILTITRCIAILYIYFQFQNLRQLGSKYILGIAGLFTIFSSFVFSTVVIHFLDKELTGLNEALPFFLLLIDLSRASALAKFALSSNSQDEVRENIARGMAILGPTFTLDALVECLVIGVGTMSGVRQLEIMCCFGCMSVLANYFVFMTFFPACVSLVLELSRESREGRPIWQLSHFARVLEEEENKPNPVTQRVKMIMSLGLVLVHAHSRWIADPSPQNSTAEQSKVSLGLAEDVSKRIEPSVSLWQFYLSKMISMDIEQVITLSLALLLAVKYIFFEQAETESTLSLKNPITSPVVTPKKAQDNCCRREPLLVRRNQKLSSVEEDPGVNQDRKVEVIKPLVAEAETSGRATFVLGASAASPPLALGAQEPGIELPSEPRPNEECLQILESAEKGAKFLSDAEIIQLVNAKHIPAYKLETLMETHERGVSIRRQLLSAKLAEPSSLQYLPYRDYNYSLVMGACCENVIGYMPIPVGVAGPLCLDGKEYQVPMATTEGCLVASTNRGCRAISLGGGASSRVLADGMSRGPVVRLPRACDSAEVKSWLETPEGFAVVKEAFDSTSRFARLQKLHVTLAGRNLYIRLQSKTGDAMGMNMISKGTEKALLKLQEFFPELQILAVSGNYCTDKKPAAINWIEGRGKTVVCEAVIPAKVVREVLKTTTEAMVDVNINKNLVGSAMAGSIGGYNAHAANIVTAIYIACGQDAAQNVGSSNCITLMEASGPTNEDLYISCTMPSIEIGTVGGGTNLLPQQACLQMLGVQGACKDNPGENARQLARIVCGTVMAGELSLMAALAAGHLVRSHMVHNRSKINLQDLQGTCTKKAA
Procedure: The biosynthesis of cholesterol in an isolated enzymatic system or in a cell culture from organs removed from experimental animals is inhibited by limiting the activity of the enzyme 3-hydroxy-3-methylglutaryl-CoA reductase.
The inhibitory activity of the products according to the present invention was determined by the method of Kuroda et al. (Biochemica et Biophysica Acta, vol. 486, pp. 70-81 (1977)), which is a modification of the method of Shapiro et al. (Analytical Biochemistry, vol. 31, pp. 383-390 (1969)). The results are summarized in Table II, where IC50 is the concentration of product in the experimental medium which is necessary to achieve a 50% inhibition of the 3-hydroxy-3-methylglutaryl-CoA reductase activity, expressed in nanomol.

SMILES | HDL cholesterol [1] [mmol/L] | Triglycerides [1] [mmol/L] | Total cholesterol [1] [mmol/L] | Total lipids [1] [g/L] | Mevalonate formed (HMG-CoA red.) | % inhibition (HMG-CoA red.) [%] | pIC50 [2]
C[C@H]1C[C@H](OC(=O)C(C)(C)Oc2ccc(C(=O)c3ccc(Cl)cc3)cc2)CC(C)(C)C1 (relative stereo) [Example 1, (TRANS) 3,3,5-TRIMETHYLCYCLOHEXYL 2-(4-(4-CHLOROBENZOYL)PHENOXY)-2-METHYLPROPIONATE] | 1.5 ± 0.4 | 0.8 ± 0.1 | 3.5 ± 1.4 | 3.6 ± 0.5 | 4.44 | 74 | –
C[C@H]1C[C@H](OC(=O)C(C)(C)Oc2ccc(CCNC(=O)c3ccc(Cl)cc3)cc2)CC(C)(C)C1 (relative stereo) [Example 3, (TRANS) 3,3,5-TRIMETHYLCYCLOHEXYL 2-(4-(2-(4-CHLOROBENZAMIDO)ETHYL)PHENOXY)-2-METHYLPROPIONATE] | 1.6 ± 0.4 | 1.2 ± 0.4 | 1.2 ± 0.7 | 3.8 ± 0.5 | – | – | 7.41
C[C@@H]1C[C@H](OC(=O)C(C)(C)Oc2ccc(CCNC(=O)c3ccc(Cl)cc3)cc2)CC(C)(C)C1 (relative stereo) [Example 4, (CIS) 3,3,5-TRIMETHYLCYCLOHEXYL 2-(4-(2-(4-CHLOROBENZAMIDO)ETHYL)PHENOXY)-2-METHYLPROPIONATE] | 2.2 ± 0.3 | 2.5 ± 0.5 | 2.6 ± 0.3 | 4.8 ± 0.7 | – | – | 7.59
Cc1ccc(C)c(OCCCC(C)(C)C(=O)O[C@H]2C[C@H](C)CC(C)(C)C2)c1 (relative stereo) [Example 6, (TRANS) 3,3,5-TRIMETHYLCYCLOHEXYL 2-(3-(2,5-DIMETHYLPHENOXY)PROPYL)-2-METHYLPROPIONATE] | 0.9 ± 0.3 | 1.7 ± 0.3 | 2.0 ± 0.2 | 8.0 ± 3 | 6.01 | 65 | –
C[C@@H]1C[C@H](OC(=O)C(C)(C)Oc2ccc(-c3ccccc3)cc2)CC(C)(C)C1 (relative stereo) [Example 8, (CIS) 3,3,5-TRIMETHYLCYCLOHEXYL 2-(4-PHENYLPHENOXY)-2-METHYLPROPIONATE] | 1.1 ± 0.2 | 6.0 ± 4 | 3.0 ± 0.2 | 3.6 ± 0.2 | – | – | –
CCC(=O)c1ccc(OC(C)(C)C(=O)O[C@H]2C[C@H](C)CC(C)(C)C2)cc1 (relative stereo) [Example 9, (TRANS) 3,3,5-TRIMETHYLCYCLOHEXYL 2-(4-PROPIONYLPHENOXY)-2-METHYLPROPIONATE] | 2.0 ± 0.6 | 1.6 ± 0.3 | 2.5 ± 0.6 | 5.0 ± 0.2 | – | – | –
CCC(=O)c1ccc(OC(C)(C)C(=O)O[C@H]2C[C@@H](C)CC(C)(C)C2)cc1 (relative stereo) [Example 10, (CIS) 3,3,5-TRIMETHYLCYCLOHEXYL 2-(4-PROPIONYLPHENOXY)-2-METHYLPROPIONATE] | – | – | – | – | – | – | 7.42
CC(=O)c1ccc(OC(C)(C)C(=O)O[C@H]2C[C@H](C)CC(C)(C)C2)c(Cl)c1 (relative stereo) [Example 11, (TRANS) 3,3,5-TRIMETHYLCYCLOHEXYL 2-(4-ACETYL-2-CHLOROPHENOXY)-2-METHYLPROPIONATE] | 1.0 ± 0.1 | 1.0 ± 0.1 | 1.8 ± 0.4 | 11 ± 5 | – | – | –
CC(=O)c1ccc(OC(C)(C)C(=O)O[C@H]2C[C@@H](C)CC(C)(C)C2)c(Cl)c1 (relative stereo) [Example 12, (CIS) 3,3,5-TRIMETHYLCYCLOHEXYL 2-(4-ACETYL-2-CHLOROPHENOXY)-2-METHYLPROPIONATE] | – | – | – | – | – | – | 7.66
CC(=O)c1cccc(OC(C)(C)C(=O)O[C@H]2C[C@H](C)CC(C)(C)C2)c1 (relative stereo) [Example 13, (TRANS) 3,3,5-TRIMETHYLCYCLOHEXYL 2-(3-ACETYLPHENOXY)-2-METHYLPROPIONATE] | – | – | – | – | – | – | 7.45
CC(=O)c1cccc(OC(C)(C)C(=O)O[C@H]2C[C@@H](C)CC(C)(C)C2)c1 (relative stereo) [Example 14, (CIS) 3,3,5-TRIMETHYLCYCLOHEXYL 2-(3-ACETYLPHENOXY)-2-METHYLPROPIONATE] | 2.1 ± 0.1 | 6.0 ± 3.0 | 3.0 ± 0.3 | 4.8 ± 0.6 | – | – | –
CC(=O)c1ccc(OC(C)(C)C(=O)O[C@@H]2C[C@@H](C)CC(C)(C)C2)cc1 (relative stereo) [Example 15, (TRAMS) 3,3,5-TRIMETHYLCYCLOHEXYL 2-(4-ACETYLPHENOXY)-2-METHYLPROPIONATE] | 1.7 ± 0.1 | 1.7 ± 1.2 | 2.8 ± 0.2 | 3.0 ± 0.3 | – | – | –
CC(=O)c1ccc(OC(C)(C)C(=O)O[C@H]2C[C@@H](C)CC(C)(C)C2)cc1 (relative stereo) [Example 16, (CIS) 3,3,5-TRIMETHYLCYCLOHEXYL 2-(4-ACETYLPHENOXY)-2-METHYLPROPIONATE] | – | – | – | – | – | – | 7.34
C[C@H]1C[C@H](OC(=O)C(C)(C)Oc2ccc(C(=O)Cc3ccccc3)cc2)CC(C)(C)C1 (relative stereo) [Example 17, (TRANS) 3,3,5-TRIMETHYLCYCLOHEXYL 2-(4-PHENYLACETYLPHENOXY)-2-METHYLPROPIONATE] | – | – | – | – | 8.66 | 50 | –
C[C@@H]1C[C@H](OC(=O)C(C)(C)Oc2ccc(C(=O)Cc3ccccc3)cc2)CC(C)(C)C1 (relative stereo) [Example 18, (CIS) 3,3,5-TRIMETHYLCYCLOHEXYL 2-(4-PHENYLACETYLPHENOXY)-2-METHYLPROPIONATE] | – | – | – | – | – | – | 7.48
C[C@H]1C[C@H](OC(=O)C(C)(C)CCCCOc2ccccc2)CC(C)(C)C1 (relative stereo) [Example 19, (TRANS) 3,3,5-TRIMETHYLCYCLOHEXYL 2-(4-PHENOXYBUTYL)- 2-METHYLPROPIONATE] | – | – | – | – | 5.2 | 70 | –
C[C@@H]1C[C@H](OC(=O)C(C)(C)CCCCOc2ccccc2)CC(C)(C)C1 (relative stereo) [Example 20, (CIS) 3,3,5-TRIMETHYLCYCLOHEXYL 2-(4-PHENOXYBUTYL)-2-METHYLPROPIONATE] | – | – | – | – | – | – | 7.39
Cc1ccc(OCCCCC(C)(C)C(=O)O[C@H]2C[C@@H](C)CC(C)(C)C2)c(C)c1 (relative stereo) [Example 21, (CIS) 3,3,5-TRIMETHYLCYCLOHEXYL 2-(4-(2,4-DIMETHYLPHENOXY)BUTYL)-2-METHYLPROPIONATE] | – | – | – | – | 3.8 | 78 | –
Cc1cc(C)cc(OCCCCC(C)(C)C(=O)O[C@H]2C[C@@H](C)CC(C)(C)C2)c1 (relative stereo) [Example 22, (CIS) 3,3,5-TRIMETHYLCYCLOHEXYL 2-(4-(3,5-DIMETHYLPHENOXY)BUTYL)-2-METHYLPROPIONATE] | – | – | – | – | – | – | 7.52
CC(C)OC(=O)C(C)(C)Oc1ccc(C(=O)c2ccc(Cl)cc2)cc1 [Fenofibrate, isopropyl 4-(4-chlorobenzoyl)phenoxyisobutyrate, reference compound] | – | – | – | – | 4.16 | – | –
